The source of these data is patent publication US10167282B2, “1-(5-tert-butyl-2-aryl-pyrazol-3-yl)-3-[2-fluoro-4-[(3-oxo-4H-pyrido [2, 3-B]pyrazin- 8-yl)oxy]phenyl]urea derivatives as RAF inhibitors for the treatment of cancer” (CANCER RESEARCH TECHNOLOGY LIMITED, priority 2013, dated 2019).

Like-named read-outs stand apart in the source and are kept apart here.

The target in one assay is V600EBRAF. The experiment in a line: DELFIA kinase assay (BRAF V600E Kinase Assay). It counts as biochemical, human. The following applies: for IC50: 100 μM ATP. How it is done:
Compounds were assessed in a kinase assay performed according to the following protocol.
^V600EBRAF was generated by infection of SF9 insect cells cultured in SF-900 II medium (Invitrogen, Paisley, Scotland) with a baculovirus containing full-length human BRAF with an N-terminal histidine tag and purified by nickel-agarose affinity chromatography.
Full-length rabbit MEK1 protein was expressed with a GST tag at the N-terminus and a C-terminal histidine tag in Escherichia coli JM109 bacteria and purified by nickel-agarose affinity chromatography.
Combine 4950 μL of DKB and 50 μL of 2.5 mg/mL GST-MEK stock obtained as described above (to give […] of MEK per 40 μL). Then add 22.5 μL of BRAF stock obtained as described above to give ˜0.2 μL of BRAF per 40 μL.
100 mM ATP stock in distilled water, dilute to 500 μM to give 100 μM final concentration in assay.
3. Plate out 40 μL of DKB1 for all inhibitors (test compounds), DMSO control, and optionally other control compounds.
5. Add inhibitors (test compounds) at 0.5 μL per well according to desired plate layout.
8. Pre-incubate with test compounds for 10 minutes at room temperature with shaking.
9. Add 10 μL of 500 μM ATP stock, in DKB, to give 100 μM assay concentration.
10. Seal plates with TopSeal and incubate at room temperature with shaking for 45 minutes.
12. Add 50 μL per well of antibody mix and incubate for 1 hour at room temperature with shaking.
14. Add 100 μL DELFIA enhancement solution per well, cover in foil, and incubate at room temperature for 30 minutes with shaking.
15. Read on Victor plate reader (Perkin-Elmer, Turku, Finland) using Europium protocol.
Values for the blank (Empty Vector) are subtracted from all values. The DMSO controls are set as 100% activity and assay points (the response) are calculated as a percentage of the DMSO control. Data are plotted using Graphpad Prism software and a non-linear regression line is calculated using a variable slope sigmoidal dose-response equation: Y=Bottom+[Top−Bottom]/[1+10^((Log EC50−X)*HillSlope)] where X is the logarithm of concentration and Y is the response. The IC50 generated by this procedure is the concentration of the drug that produces a percentage control fluorescence value midway between the saturation, and zero-effect plateaus. Three independent assays are usually performed and the mean IC50 is reported.

Another assay has as its system hERG. It counts as cell-based, human. The following applies: read-out: hERG Inhibition IC50. How it is done: Studies were conducted at Cyprotex Discovery in Cheshire, UK according to the contractor's protocol. The studies were performed on an IonWorks™ HT instrument (Molecular Devices Corporation), which automatically performs electrophysiology measurements in […] single cells simultaneously in a specialised 384-well plate (PatchPlate™). The cells used were Chinese hamster ovary (CHO) cells stably transfected with hERG (cell-line obtained from Cytomyx, UK). A single-cell suspension was prepared in extracellular solution (Dulbecco's phosphate buffered saline with calcium and magnesium pH 7-7.2) and aliquots added automatically to each well of a PatchPlate™. The cells were then positioned over a small hole at the bottom of each well by applying a vacuum beneath the plate to form an electrical seal. The vacuum was applied through a single compartment common to all wells which was filled with intracellular solution (buffered to pH 7.2 with HEPES). The resistance of each seal was measured via a common ground-electrode in the intracellular compartment and individual electrodes placed into each of the upper wells.
Electrical access to the cell was then achieved by circulating a perforating agent, amphotericin, underneath the PatchPlate™ and then measuring the pre-compound hERG current. An electrode was positioned in the extracellular compartment and a holding potential of −80 mV applied for 15 seconds. The hERG channels were then activated by applying a depolarising step to +40 mV for 5 seconds and then clamped at −50 mV for 4 seconds to elicit the hERG tail current, before returning to −80 mV for 0.3 seconds. […]. Quinidine, an established hERG inhibitor, was included as an experimental control. […]. The test compound was left in contact with the cells for 300 seconds before recording currents using the same voltage-step protocol as in the pre-compound scan. Each concentration was tested in 4 replicate wells.
Post-compound currents were expressed as a percentage of pre-compound currents and plotted against concentration for each compound. Where concentration-dependent inhibition was observed, the data were fitted to the following equation: y=(ymax−ymin)/(1+(x/x50)^s)+ymin.
y=(post-compound current/pre-compound current)×100;
x50=concentration required to inhibit current by 50% (IC50); and […]
On the technique in general: Block of hERG is tested as a sign of cardiac risk.

Assay [1] has as its system mice with collagen-induced arthritis. The settings on record: cited from earlier work.
The test system of another assay is TAK1. The experiment in a line: Kinase profiling, radioactive (33P-ATP) filter-binding assay. It counts as biochemical. The settings on record: at 1 μM. How it is done: (§1) Activity Against Other Targets
(§2) Additional studies were conducted at The International Centre for Kinase Profiling in Dundee according to the contractor's protocol. TBAP-01 was dissolved in DMSO and assayed at a final concentration of 1 μM in 2% DMSO against 131 kinases. The assays were carried out using a radioactive (^33P-ATP) filter-binding assay.

In a further assay the test system is MINK1. The description is as above. It counts as biochemical. The following applies: at 1 μM. How it is done: as §1, §2
The subject of a further assay is YES1. Described as above. It is filed as biochemical. The following applies: at 1 μM. How it is done:
as §1, §2

In another assay the test system is Tie-2. The description is as above. It is filed as biochemical. The following applies: at 1 μM. How it is done:
as §1, §2

The next assay deals with IGF1Rβ. The assay is described as above. The settings on record: not stated whether inhibition or remaining activity. It counts as biochemical. How it is done:
as §1, §2

For the next assay, the system named is TESK1. The assay is described as above. The settings on record: at 1 μM. It counts as biochemical. How it is done: as §1, §2
A further assay has as its system DDR2. The description is as above. It is filed as biochemical. The settings on record: at 1 μM. How it is done:
as §1, §2

The subject of the next assay is TrkA. Described as above. It counts as biochemical. The settings on record: at 1 μM. How it is done:
as §1, §2

Another assay has as its system ABL. Described as above. It counts as biochemical. The settings on record: at 1 μM. How it is done: as §1, §2
For a further assay, the target named is PDGFRα. Description: Z'-LYTE biochemical kinase assay. The settings on record: ATP 100 μM. How it is done: as §1
(§3) Studies were conducted at Life Technologies in Paisley according to the contractor's protocol. TBAP-01 was dissolved in DMSO and assayed at final concentrations ranging from 10 μM to 0.5 nM in 1% DMSO, in the presence of an ATP concentration of 100 μM. IC50 values for test compounds were determined using the Z'-LYTE® biochemical assay employing a fluorescence-based, coupled-enzyme format based on the differential sensitivity of phosphorylated and non-phosphorylated peptides to proteolytic cleavage.

The next assay has as its target KDR. The experiment in a line: Z'-LYTE biochemical kinase assay. The settings on record: ATP 100 μM. How it is done: as §1, §3
In a further assay the target is MET. The experiment in a line: Z'-LYTE biochemical kinase assay. The settings on record: ATP 100 μM. How it is done: as §1, §3
The next assay deals with FGFR1. Description: Z'-LYTE biochemical kinase assay. The settings on record: ATP 100 μM. How it is done:
as §1, §3

A further assay addresses PDGFRβ. The experiment in a line: Z'-LYTE biochemical kinase assay. The settings on record: ATP 100 μM. How it is done:
as §1, §3

In a further assay the target is CRAF. Description: Z'-LYTE biochemical kinase assay. The following applies: ATP 100 μM. How it is done:
as §1, §3

The target of another assay is EGFR. Description: Z'-LYTE biochemical kinase assay. The settings on record: ATP 100 μM. How it is done: as §1, §3
A further assay has as its target p38α. The experiment in a line: Z'-LYTE biochemical kinase assay. The settings on record: ATP 100 μM. How it is done:
as §1, §3

For a further assay, the target named is Src. The experiment in a line: Z'-LYTE biochemical kinase assay. The following applies: ATP 100 μM. How it is done: as §1, §3
For a further assay, the target named is Lck. The experiment in a line: Z'-LYTE biochemical kinase assay. The settings on record: ATP 100 μM. How it is done: as §1, §3
Another assay concerns the target p38γ. The experiment in a line: Z'-LYTE biochemical kinase assay. The following applies: ATP 100 μM. How it is done: as §1, §3
Assay [2] has as its system mutant BRAF WM266.4 cells. The experiment in a line: Cell based phospho-ERK assay. The settings on record: Homo sapiens, WM 266-4, 6 h, read-out: Cell-Based Phospho-ERK Assay IC50.
Method: Cell Based Phospho-ERK Assay (Mutant BRAF WM266.4 Cells)
Compounds were assessed using a cell-based assay which was performed according to the following protocol.
Plate out 16,000 mutant BRAF WM266.4 cells/well in 99 μL medium in a 96-well plate.
Add 1 μL test compound to the cells (total 1 μL solution).
Incubate the cells with test compound for 6 hours at 37° C.
Read Europium Time Resolved Fluorescence in Victor2 plate reader (Perkin-Elmer, Turku, Finland).
Note that Europium counts are normalised for protein levels by dividing counts by absorbance.
Values for the blank (no cells) are subtracted from all values. The DMSO controls are set as 100% activity and assay points (the response) are calculated as a percentage of the DMSO control. Data are plotted using Graphpad Prism software and a non-linear regression line is calculated using a variable slope sigmoidal dose-response equation: Y=Bottom+[Top−Bottom]/[1+10^((Log EC50−X)*HillSlope)] where X is the logarithm of concentration and Y is the response). The IC50 generated by this procedure is the concentration of the drug that produces a percentage control fluorescence value midway between the saturation, and zero-effect plateaus. Three independent assays are usually performed and the mean IC50 is reported.
The mark [3] stands for this setting: CHO cells stably transfected with hERG, tail current.

By IC50 is commonly meant the concentration that inhibits the measured activity by half. On to `Cn1c(=O)[nH]c2nccc(Oc3ccc(NC(=O)Nc4cc(C(C)(C)C)nn4-c4cccc(F)c4)c(F)c3)c21` [AA-04, reference compound], for which, on V600EBRAF, the IC50 amounted to 650 nM.

As for `Cc1ccc(-n2nc(C(C)(C)C)cc2NC(=O)Nc2ccc(Oc3ccnc4[nH]c(=O)cnc34)cc2F)cc1` [AA-018, reference compound], the IC50 against V600EBRAF was 64 nM; in the assay on hERG (setting [3]), above 100000 nM.

As to `CC(C)(C)c1cc(NC(=O)Nc2ccc(Oc3ccnc4[nH]c(=O)cnc34)cc2F)n(-c2ccccc2)n1` [AA-019, reference compound], the IC50 against V600EBRAF was 55 nM; in the assay on hERG (setting [3]) it was above 100000 nM.

On to `COc1ccc(-n2nc(C(C)(C)C)cc2NC(=O)Nc2ccc(Oc3ccnc4[nH]c(=O)cnc34)cc2F)cn1` [AA-062, reference compound], for which the IC50 against V600EBRAF is 79 nM; with hERG (setting [3]), above 100000 nM.

For the compound `Cc1ccc(-n2nc(C(C)(C)C)cc2NC(=O)Nc2ccc(Oc3ccnc4[nH]c(=O)cnc34)cc2F)cn1` [AA-084, reference compound], the IC50 against V600EBRAF is 710 nM; in the assay with hERG (setting [3]) it was 53000 nM.

For the compound `Clc1ccc(Nc2nnc(Cc3ccncc3)c3ccccc23)cc1` [PTK787/ZK222584], in [1], the “inhibition of knee swelling” value is 40% and the “inhibition of severity scores” value is given as 51%.

Consider `CC(C)(C)c1cc(NC(=O)Nc2ccc(Oc3ccnc4[nH]c(=O)cnc34)cc2F)n(-c2cccc(F)c2)n1` [TBAP-01], for which, in the assay with TAK1, the TAK1 activity remaining is given as 6% activity remaining at 1 μM. Also, the MINK1 activity remaining with MINK1 is 4% activity remaining at 1 μM. The YES1 activity remaining in the assay on YES1 is recorded as 6% activity remaining at 1 μM. Besides, in the assay with Tie-2, the Tie-2 activity remaining was 3% activity remaining at 1 μM. Also, the “IGF1Rβ % @ 1 μM” value in the assay on IGF1Rβ was found to be 78% @ 1. The TESK1 activity remaining with TESK1 was 5% activity remaining at 1 μM. In the assay with DDR2, the DDR2 activity remaining is listed as 3% activity remaining at 1 μM. Also, the TrkA activity remaining in the assay on TrkA is given as 6% activity remaining at 1 μM. Besides, the ABL activity remaining with ABL is given as 4% activity remaining at 1 μM. The “fold more potent than Compound AA-04 on the BRAF kinase assay” value in the assay with V600EBRAF is 10 fold. Also, the IC50 on V600EBRAF is 62 nM; in the assay on hERG (setting [3]), above 100000 nM; at PDGFRα, 800 nM; at KDR, 120 nM; on MET, 1400 nM; at FGFR1, 470 nM. The IC50 on PDGFRβ came out at 740 nM; at CRAF, 33 nM; on EGFR it was 1900 nM; against p38α, 470 nM; against Src, 27 nM; against Lck, 19 nM. In addition, at p38γ, the IC50 amounted to 220 nM. The “fold more potent than Compound AA-084 on the BRAF kinase assay” value with V600EBRAF (vs AA-084) stood at 11 fold.

For the compound `Cc1cccc(-n2nc(C(C)(C)C)cc2NC(=O)Nc2ccc(Oc3ccnc4[nH]c(=O)cnc34)cc2F)c1` [TBAP-02], the figures for the IC50 at V600EBRAF and with hERG were 99 nM and 65000 nM, respectively.

`CC(C)(C)c1cc(NC(=O)Nc2ccc(Oc3ccnc4[nH]c(=O)cnc34)cc2F)n(-c2cccc(C(F)(F)F)c2)n1` [TBAP-03]: the IC50 against V600EBRAF was 130 nM; in the assay with hERG (setting [3]) it was above 100000 nM.

Take `COc1cccc(-n2nc(C(C)(C)C)cc2NC(=O)Nc2ccc(Oc3ccnc4[nH]c(=O)cnc34)cc2F)c1` [TBAP-04, 1-(3-tert-butyl-1-(3-methoxyphenyl)-1H-pyrazol-5-yl)-3-(2-fluoro-4-(3-oxo-3,4-dihydropyrido[3,2-b]pyrazin-8-yloxy)phenyl)urea]: the IC50 on V600EBRAF is 47 nM; in the assay with hERG (setting [3]) it was above 100000 nM.

Regarding `CC(C)(C)c1cc(NC(=O)Nc2ccc(Oc3ccnc4[nH]c(=O)cnc34)cc2F)n(-c2ccnc(O)c2)n1` [TBAP-05, 1-(3-tert-butyl-1-(2-oxo-1,2-dihydropyridin-4-yl)-1H-pyrazol-5-yl)-3-(2-fluoro-4-(3-oxo-3,4-dihydropyrido[3,2-b]pyrazin-8-yloxy)phenyl)urea], the IC50 in assay [2] was determined as 450 nM; on V600EBRAF, 390 nM.
